Results reported in PubChem BioAssay (NCI).
Values joined by “and” are separate entries in the source; they are usually repeats but may differ in a detail not shown here. Equal entries are not always repeated.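 Method: 48-hour compound exposure of cells in 96-well plates, five concentrations, linear interpolation of endpoints. GI50: concentration for 50% inhibition of growth. TGI: concentration producing complete growth inhibition.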

What was measured:
Experiment in all cases: DTP human tumour cell line panel, 48 h
UO-31 renal = test system: UO-31 renal
SN12C renal = test system: SN12C renal
SK-MEL-5 melanoma = test system: SK-MEL-5 melanoma
MDA-MB-231 breast = test system: MDA-MB-231 breast
NCI-H522 lung = test system: NCI-H522 lung
MCF7 breast = test system: MCF7 breast
MALME-3M melanoma = test system: MALME-3M melanoma
HCC-2998 colon = test system: HCC-2998 colon
COLO 205 colon = test system: COLO 205 colon
HT29 colon = test system: HT29 colon

SMILES	GI50 (UO-31 renal)	TGI (UO-31 renal)	GI50 (SN12C renal)	TGI (SN12C renal)	GI50 (SK-MEL-5 melanoma)	TGI (SK-MEL-5 melanoma)	GI50 (MDA-MB-231 breast)	TGI (MDA-MB-231 breast)	GI50 (NCI-H522 lung)	TGI (NCI-H522 lung)	GI50 (MCF7 breast)	TGI (MCF7 breast)	GI50 (MALME-3M melanoma)	TGI (MALME-3M melanoma)	GI50 (HCC-2998 colon)	TGI (HCC-2998 colon)	GI50 (COLO 205 colon)	TGI (COLO 205 colon)	GI50 (HT29 colon)	TGI (HT29 colon)
Cn1nc(C(F)(F)F)cc1-c1cc(Cl)c(OCc2ccc(Cl)cc2)c(-c2ccc(Cl)c(C(F)(F)F)c2)c1O	1.12 µM	3.51 µM	0.785 µM	4.58 µM	0.777 µM	1.74 µM	0.958 µM	2.43 µM	0.731 µM	5.09 µM	1.01 µM	5.33 µM	1.06 µM	2.57 µM	1.4 µM	5.45 µM	0.718 µM	2.39 µM	1.4 µM	5.92 µM
C[C@]12CCC(=O)C=C1C[C@@H](O)[C@@H]1[C@@H]2CC[C@@]2(C)[C@H]1CC[C@]2(C)O	–	> 100 µM	–	> 100 µM	–	> 100 µM	–	> 100 µM	–	> 100 µM	–	> 100 µM	–	> 100 µM	–	> 100 µM	–	> 100 µM	–	> 100 µM
c1ccc2c(N=NSc3ncnc4nc[nH]c34)c3ccccc3nc2c1	1.09 µM	3.99 µM	0.811 µM	12.8 µM	1.16 µM	2.39 µM	1.24 µM	6.11 µM	1.35 µM	3.36 µM	0.37 µM	10.4 µM	2.01 µM	4.11 µM	1.49 µM	3.77 µM	0.428 µM	1.76 µM	0.398 µM	2.16 µM
CCOC(=O)N1CCC(N=C2CSc3nnc(-c4cc(C(F)(F)F)cc(C(F)(F)F)c4)n3N2)CC1	1.66 µM	5.4 µM	1.7 µM	3.57 µM	1.61 µM	3 µM	1.81 µM	3.56 µM	2.27 µM	4.61 µM	2.05 µM	4.98 µM	1.68 µM	3.31 µM	2.25 µM	4.78 µM	2.17 µM	3.93 µM	1.97 µM	3.65 µM
COc1cccc(N2CC(O)=C(c3nc4ccccc4s3)C2=N)c1	0.717 µM	> 70.3 µM	0.379 µM	5.63 µM	0.211 µM	23 µM	0.359 µM	3.42 µM	0.0588 µM	–	0.289 µM	> 100 µM	0.266 µM	> 100 µM	0.23 µM	3.57 µM	0.472 µM	> 100 µM	0.252 µM	> 39.3 µM
CCC(=O)NC1=C(Cl)C(=O)C(NC(=O)CC)=C(Cl)C1=O	5.97 µM	11.4 µM	17.7 µM	31.9 µM	17.6 µM	31.7 µM	16.9 µM	31.2 µM	5.86 µM	10.7 µM	9.51 µM	28.3 µM	5.17 µM	10.1 µM	17.4 µM	32.1 µM	5.97 µM	10.8 µM	25.2 µM	53.3 µM
CN1CCN(Cc2ccc(NC(=O)c3cncc(C#Cc4ccc(N)nc4)c3)cc2C(F)(F)F)CC1	0.716 µM	2.93 µM	1.11 µM	5.17 µM	1.17 µM	3.24 µM	0.634 µM	1.71 µM	0.774 µM	6.2 µM	1.23 µM	7.22 µM	0.535 µM	1.46 µM	1.96 µM	6.96 µM	0.865 µM	3.95 µM	0.728 µM	4.59 µM
COc1cc2c(cc1OCC(=O)Nc1ccc(Cl)cc1C(=O)c1ccccc1Cl)N=CC1CCCN1C2=O (stereo not drawn)	7.97 µM	20.5 µM	13.8 µM	27.8 µM	10 µM	21.9 µM	10.7 µM	25.7 µM	2.59 µM	7.17 µM	5.27 µM	17.5 µM	20.1 µM	37 µM	13.4 µM	34.3 µM	14.2 µM	30.8 µM	11.9 µM	34.2 µM
O=C(Nc1cccc([N+](=O)[O-])c1)c1cccc(C(=O)Nc2cccc([N+](=O)[O-])c2)c1	> 100 µM	> 100 µM	60.3 µM	> 100 µM	> 100 µM	> 100 µM	12.1 µM	> 100 µM	3.32 µM	> 100 µM	> 100 µM	> 100 µM	> 100 µM	> 100 µM	> 100 µM	> 100 µM	> 100 µM	> 100 µM	> 100 µM	> 100 µM
O=C(Nc1nc2c(C(F)(F)F)cccc2s1)c1cc(Cl)ccc1O	0.265 µM	11.7 µM	0.289 µM	1.53 µM	0.193 µM	0.446 µM	0.27 µM	0.952 µM	0.285 µM	14 µM	0.302 µM	27.5 µM	0.231 µM	0.641 µM	0.451 µM	14.1 µM	0.52 µM	2.42 µM	0.44 µM	13 µM
CC(NNC(=S)N1CCN(c2ccccn2)CC1)c1nccc2ccccc12 (stereo not drawn)	–	8.34 µM	–	11.3 µM	–	12.3 µM	–	16.8 µM	–	14 µM	–	14.3 µM	–	15.5 µM	–	14.7 µM	–	5.93 µM	–	19.1 µM
Cc1cc(N(CCC#N)S(=O)(=O)c2ccccc2)ccc1C=Nc1ccc(C(=O)O)cc1	–	21.8 µM	–	16.8 µM	–	24.3 µM	–	> 100 µM	–	9.13 µM	–	> 100 µM	–	12 µM	–	27.5 µM	–	10.1 µM	–	45.6 µM
Cc1c(C(=O)Nc2ccc(N3C[C@@H](C)O[C@@H](C)C3)nc2)cccc1-c1ccc(OC(F)(F)F)cc1	3.52 µM and 8.63 µM	19 µM and 27 µM	10.8 µM and 14.1 µM	29.8 µM and 44.6 µM	3.83 µM and 5.23 µM	20.8 µM and 38.3 µM	5.91 µM and 11.8 µM	21.4 µM and 31.3 µM	9.14 µM and 10.2 µM	33.9 µM and 34.9 µM	8.25 µM and 15.4 µM	31 µM and 49 µM	12.1 µM and 13.3 µM	46.2 µM and 46 µM	12.4 µM and 15.5 µM	36.1 µM and 42.3 µM	13.5 µM and 19.9 µM	> 65 µM and 58.8 µM	11.9 µM and 15.1 µM	41.7 µM and 64.4 µM
CCN1CCN(C(=O)[C@]23CC[C@@H](C)[C@H](C)[C@@H]2C2=CC[C@@H]4[C@@]5(C)CCC(=O)C(C)(C)[C@@H]5CC[C@@]4(C)[C@]2(C)CC3)CC1	0.726 µM	1.42 µM	0.776 µM	1.48 µM	0.888 µM	1.6 µM	0.779 µM	1.5 µM	0.831 µM	1.75 µM	0.891 µM	2.03 µM	0.807 µM	1.51 µM	0.922 µM	1.82 µM	1.02 µM	2.37 µM	0.913 µM	2.05 µM
COc1ccc2c3ccnc(C(F)(F)F)c3n(CCCCN)c2c1	1.6 µM	8.36 µM	10.5 µM	28.7 µM	2.83 µM	9.05 µM	8.12 µM	21.7 µM	6.22 µM	21.4 µM	4.61 µM	17.4 µM	2.02 µM	5.36 µM	5.23 µM	16.7 µM	2.74 µM	12.1 µM	4.01 µM	15.8 µM
CC1=CC(C)=N/C(=N/S(=O)(=O)c2cc(C)c(Cl)cc2SCc2ccccc2)NN1	> 100 µM	> 100 µM	> 100 µM	> 100 µM	> 100 µM	> 100 µM	> 100 µM	> 100 µM	96.6 µM	> 100 µM	> 100 µM	> 100 µM	> 100 µM	> 100 µM	> 100 µM	> 100 µM	> 100 µM	> 100 µM	> 100 µM	> 100 µM
CC(C)(C)NCC(O)c1ccccc1Cl (stereo not drawn)	> 100 µM	> 100 µM	> 100 µM	> 100 µM	> 100 µM	> 100 µM	> 100 µM	> 100 µM	> 100 µM	> 100 µM	> 100 µM	> 100 µM	> 100 µM	> 100 µM	> 100 µM	> 100 µM	> 100 µM	> 100 µM	> 100 µM	> 100 µM
CC1(C)OCC2OC(n3cnc4c(N)nc(Cl)nc43)C(OS(C)(=O)=O)C2O1 (stereo not drawn)	–	> 100 µM	–	> 100 µM	–	> 100 µM	–	> 100 µM	–	> 100 µM	–	> 100 µM	–	> 100 µM	–	> 100 µM	–	> 100 µM	–	> 100 µM
CCOC(=O)C1=C(Nc2ccc(OC)cc2)C(N)=NC1=N	6.29 µM	> 100 µM	5.14 µM	> 100 µM	0.57 µM	55.8 µM	4.02 µM	> 100 µM	3.12 µM	> 100 µM	0.587 µM	> 100 µM	7.29 µM	> 100 µM	3.94 µM	> 100 µM	3.07 µM	10.1 µM	2.9 µM	> 100 µM
CC1=CC2(C)/C=C(C)/C=C\CC(O)/C=C3/C=CC(=C4C(=O)OC2(CC1C)C4=O)OC3 (stereo not drawn)	1.46 µM	3.06 µM	1.92 µM	5.01 µM	3.07 µM	11.6 µM	1.99 µM	4.25 µM	2.46 µM	8.55 µM	2.11 µM	20.7 µM	2.14 µM	5.13 µM	5.78 µM	22.2 µM	1.47 µM	3.65 µM	2.4 µM	> 26.4 µM
CCC(=O)OCOc1ccc(/C=C2\CCC(CN(C)C)C2=O)cc1 (stereo not drawn)	–	19 µM	–	7.56 µM	–	26.6 µM	–	> 19.9 µM	–	4.41 µM	–	10.1 µM	–	10.6 µM	–	18.5 µM	–	15.8 µM	–	25.7 µM
Clc1ccc2c(NC3CCC(N4CCCCC4)CC3)ccnc2c1 (stereo not drawn)	–	28 µM	–	> 100 µM	–	30.6 µM	–	40 µM	–	51.6 µM	–	> 100 µM	–	36.1 µM	–	27.4 µM	–	27.2 µM	–	40.7 µM
Cc1ccc2ccccc2c1CSc1nc(N)nc2c1ncn2CC(C)C	–	13.2 µM	–	> 100 µM	–	20.3 µM	–	> 100 µM	–	96.9 µM	–	> 63.9 µM	–	> 62.2 µM	–	> 71.6 µM	–	20.2 µM	–	> 100 µM
CC1Cc2c(Cl)ncnc2N(C)c2ccccc21 (stereo not drawn)	3.37 µM	89.1 µM	3.4 µM	15.5 µM	1.85 µM	3.62 µM	2.39 µM	5.05 µM	1.76 µM	3.7 µM	3.17 µM	14.5 µM	2.03 µM	7.5 µM	3.01 µM	10.6 µM	1.77 µM	3.41 µM	2.47 µM	7.27 µM
O=C1C=CC2C3C(=O)N(c4ccccc4)C(=O)C3C1N2Cc1ccccc1 (stereo not drawn)	3.42 µM	6.79 µM	1.64 µM	3.43 µM	3.57 µM	6.88 µM	5.44 µM	20.1 µM	2.68 µM	7.64 µM	3.19 µM	11.5 µM	4.62 µM	9.43 µM	7.95 µM	18.7 µM	–	5.37 µM	2.07 µM	4.47 µM
CCC[CH2][Sn]1([CH2]CCC)[O]C(=O)c2cccc([N+](=O)[O-])c2C(=O)[O]1	0.329 µM	1.41 µM	0.784 µM	2.15 µM	0.919 µM	2.22 µM	0.271 µM	1.04 µM	0.0711 µM	0.217 µM	0.244 µM	1.13 µM	0.189 µM	0.623 µM	1.11 µM	2.45 µM	0.617 µM	1.93 µM	1.31 µM	2.87 µM
CC(C)[C@@H](C(=O)O[C@@H]1/C=C/C(=O)O[C@@H](C)CCC/C=C/[C@@H]2C[C@H](O)C[C@H]21)N(C)C	23.1 µM	> 100 µM	28.4 µM	> 62.1 µM	2.25 µM	5.37 µM	20.2 µM	63.2 µM	26.6 µM	> 75 µM	11.9 µM	43.1 µM	3.89 µM	22 µM	20 µM	55.1 µM	8.95 µM	25.5 µM	5.16 µM	27.3 µM
